{"source": "patent US4499299A", "about": "“Pharmaceutically active phenylcarboxylic acid derivatives” (ICI Americas Inc., priority 1981, dated 1985)", "data": [{"test_system": "isolated guinea pig trachea contracted by leukotriene C4 or D4 (SRS-A)", "experiment": "Antagonism of leukotriene C4 or D4 induced contractions of isolated guinea pig trachea (SRS-A antagonist test)", "type": "cell-based", "conditions": "inhibition of contraction induced by 8×10^-9 M LTD4 or LTC4, isolated guinea pig tracheal strip, indomethacin 5×10^-6 M present", "description": "Male Hartley guinea pigs weighing 300-500 g are killed and exsanguinated. The trachea is immediately resected, cleaned of adhering connective tissue and cut into a spiral strip measuring approximately 3 to 5 mm ×20 to 25 mm. The strip is mounted in a 10 ml jacketed tissue bath by tying one end to a tissue hook and the opposite end to a Grass FT03C force-displacement transducer connected to an 8-channel Beckman Polygraph for recording contractile or relaxant responses. The tissue is bathed in modified Krebs' solution (37.5° C.) of the following composition (mM): NaCl, 119; KCl, 4.6; CaCl2, 1.8; MgCl2, 0.5; NaHCO3, 24.9; NaH2 PO4, 1.0; glucose, 11.1. Indomethacin, a cyclooxygenase inhibitor, is also present in a concentration of 5×10^-6 M. The tissue baths are constantly aerated with 95% O2 and 5% CO2. Tissues are placed under a passive tension of 2 g and allowed a 50 minute equilibration period before beginning experiments. This technique is standard for studying the effects of drugs on airway smooth muscle (Krell, R. D., J. Pharmacol. Exp. Ther. 211: 436, 1979; Kneussel, M. P. and Richardson, J. B., J. Appl. Physiol. 45: 307, 1978; Fleisch, J. H. and Calkins, P. J., J. Appl. Physiol. 41: 62, 1976).\nTissues are set up in groups of eight--four are used as time/vehicle controls and the remaining four for experimental compounds. No fewer than 4 tissues are used for each test compound. All tissues are exposed to 8×10^-9 M LTD4, following the 50 minute equilibration period, and the response recorded. This concentration of LTD4 is that which produces a contraction equal to about 70-80% of the maximal effect of the agonist in this tissue. The LTD4 is washed out for 20-25 minutes and the procedure repeated twice to insure that reproducible responses are being obtained with LTD4. LTC4, at a concentration of 8×10^-9 M, may be substituted for LTD4 in the same procedure.\nOnce tissue reproducibility has been established test compounds are added to four baths following the […] washout period. After a 10 minute incubation with test compound or vehicle 8×10^-9 M LT's are added and the response recorded. Percent inhibition by the test compound or percent change in vehicle controls is calculated, for each tissue, according to the following equation: % inhibition=100 multiplied by (mg tension increase of preceding response minus mg tension increase in presence of compound) divided by mg tension increase of preceding response. The means of the percent changes for vehicle controls and test compound are calculated and evaluated for significant differences by Students' t-test for unpaired data. Tissues exposed to agents were retested for responsiveness to LTD4 or C4 following a 25 minute washout period. […]", "values": [{"compound": "CCCc1c(OCc2ccc(C(=O)O)cc2OC)ccc(C(C)=O)c1O", "note": "[Example 4, 3-Methoxy-4-(4-acetyl-3-hydroxy-2-propylphenoxy)methylbenzoic acid]", "activity as an SRS-A antagonist": "Particularly active"}, {"compound": "CCCc1c(OCc2ccc(OCC(=O)O)cc2)ccc(C(C)=O)c1O", "note": "[Example 7, 4-(4-Acetyl-3-hydroxy-2-propylphenoxy)methylphenoxyacetic acid]", "activity as an SRS-A antagonist": "Particularly active"}, {"compound": "CCCc1c(OCc2ccc(/C=C/C(=O)O)cc2)ccc(C(C)=O)c1O", "note": "[Example 16, 4-(4-Acetyl-3-hydroxy-2-propylphenoxy)methylcinnamic acid]", "activity as an SRS-A antagonist": "Particularly active"}, {"compound": "CCCc1c(OCc2ccc(C=CC(=O)O)cc2OC)ccc(C(C)=O)c1O", "note": "[Example 22, 3-Methoxy-4-(4-acetyl-3-hydroxy-2-propylphenoxy)methylcinnamic acid]", "activity as an SRS-A antagonist": "Particularly active"}]}]}
